Values of other authors in patent US20040259937A1, “Hydroxycitric acid complex metal salts, composition, and methods” (INDFRAG LIMITED, priority 2003, published 2004).

Details: converted to the lactone form during processing

stability of pure free acid: not stable
Structure (SMILES): O=C(O)CC(O)(C(=O)O)C(O)C(=O)O (single isomer, unassigned; (-)) [(−)hydroxycitric acid]
